Columns and labels:
late watergrass = assay: Test Example 1: herbicidal activity, application before weed generation under submerged conditions (Table 16, symbol A); assay type: in vivo, late watergrass (Echinochloa oryzicola); settings: 320 g/ha applied herbicide
Procedure, shortened: (§1)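 Emulsion formulation, water-diluted to set dose, was put onto the flooded surface (4 cm depth, alluvial soil) the same day weeds were sown and 2.5-leaf rice transplanted. After 3 weeks at 25-30 °C under glass, each species was rated 0 (≤5% kill) to 5 (≥90% kill).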

Japanese bulrush = assay: Test Example 1: herbicidal activity, application before weed generation under submerged conditions (Table 16, symbol B); assay type: in vivo, Japanese bulrush (Schoenoplectus juncoides); settings: 320 g/ha applied herbicide
Procedure, shortened: as §1

oval-leafed pondweed = assay: Test Example 1: herbicidal activity, application before weed generation under submerged conditions (Table 16, symbol C); assay type: in vivo, oval-leafed pondweed (Monochoria vaginalis); settings: 320 g/ha applied herbicide
Procedure, shortened: as §1

barnyard grass [1] = assay: Test Example 3: herbicidal effect by foliage application, Wagner pot (Table 18, symbol H); assay type: in vivo, barnyard grass (Echinochloa crus-galli); settings: for herbicidal effect on H (barnyard grass), rating 0-5: 320 g/ha
Procedure, shortened: (§2)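 Plants were sown in alluvial soil held under 0.1–0.5 cm standing water and grown 14 days in a greenhouse at 25–30 °C. An emulsifiable formulation, water-diluted to the set dose, was then sprayed onto the foliage, and effects were scored three weeks later using previously defined criteria.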

Chinese sprangletop = assay: Test Example 3: herbicidal effect by foliage application, Wagner pot (Table 18, symbol D); assay type: in vivo, chinese sprangletop (Leptochloa chinensis); settings: for herbicidal effect on D (Chinese sprangletop), rating 0-5: 320 g/ha
Procedure, shortened: as §2

rice flat sedge = assay: Test Example 3: herbicidal effect by foliage application, Wagner pot (Table 18, symbol E); assay type: in vivo, rice flat sedge (Cyperus iria); settings: for herbicidal effect on E (rice flat sedge), rating 0-5: 320 g/ha
Procedure, shortened: as §2

southern crabgrass = assay: Test Example 5: herbicidal effect by foliage application, plastic box (Table 20, symbol F); assay type: in vivo, southern crabgrass (Digitaria ciliaris); settings: foliage application; for herbicidal effect on F: southern crabgrass: 320 g/ha, evaluated three weeks after application
Procedure, shortened: (§3)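 Plants sown in sterilized diluvial soil and grown 14 days in a greenhouse at 25° C to 30° C, then sprayed on the foliage with the compound's emulsion diluted in water to a predetermined herbicide amount. Injury to weeds and crops scored three weeks after application on a visual rating scale.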

green foxtail = assay: Test Example 5: herbicidal effect by foliage application, plastic box (Table 20, symbol G); assay type: in vivo, green foxtail (Setaria viridis); settings: foliage application; for herbicidal effect on G: green foxtail: 320 g/ha, evaluated three weeks after application
Procedure, shortened: as §3

barnyard grass [2] = assay: Test Example 5: herbicidal effect by foliage application, plastic box (Table 20, symbol H); assay type: in vivo, barnyard grass (Echinochloa crus-galli); settings: foliage application; for herbicidal effect on H: barnyard grass: 320 g/ha, evaluated three weeks after application
Procedure, shortened: as §3

wild oat = assay: Test Example 5: herbicidal effect by foliage application, plastic box (Table 20, symbol I); assay type: in vivo, wild oat (Avena fatua); settings: foliage application; for herbicidal effect on I: wild oat: 320 g/ha, evaluated three weeks after application
Procedure, shortened: as §3

blackgrass = assay: Test Example 5: herbicidal effect by foliage application, plastic box (Table 20, symbol J); assay type: in vivo, blackgrass (Alopecurus myosuroides); settings: foliage application; for herbicidal effect on J: blackgrass: 320 g/ha, evaluated three weeks after application
Procedure, shortened: as §3

Italian ryegrass = assay: Test Example 5: herbicidal effect by foliage application, plastic box (Table 20, symbol K); assay type: in vivo, Italian ryegrass (Lolium multiflorum); settings: foliage application; for herbicidal effect on K: Italian ryegrass: 320 g/ha, evaluated three weeks after application
Procedure, shortened: as §3

windgrass = assay: Test Example 5: herbicidal effect by foliage application, plastic box (Table 20, symbol L); assay type: in vivo, windgrass (Apera spica-venti); settings: foliage application; for herbicidal effect on L: windgrass: 320 g/ha, evaluated three weeks after application
Procedure, shortened: as §3

velvetleaf = assay: Test Example 5: herbicidal effect by foliage application, plastic box (Table 20, symbol M); assay type: in vivo, velvetleaf (Abutilon theophrasti); settings: foliage application; for herbicidal effect on M: velvetleaf: 320 g/ha, evaluated three weeks after application
Procedure, shortened: as §3

redroot pigweed = assay: Test Example 5: herbicidal effect by foliage application, plastic box (Table 20, symbol N); assay type: in vivo, redroot pigweed (Amaranthus retroflexus); settings: foliage application; for herbicidal effect on N: redroot pigweed: 320 g/ha, evaluated three weeks after application
Procedure, shortened: as §3

lambsquarters = assay: Test Example 5: herbicidal effect by foliage application, plastic box (Table 20, symbol O); assay type: in vivo, lambsquarters (Chenopodium album); settings: foliage application; for herbicidal effect on O: lambsquarters: 320 g/ha, evaluated three weeks after application
Procedure, shortened: as §3

chickweed = assay: Test Example 5: herbicidal effect by foliage application, plastic box (Table 20, symbol P); assay type: in vivo, common chickweed (Stellaria media); settings: foliage application; for herbicidal effect on P: chickweed: 320 g/ha, evaluated three weeks after application
Procedure, shortened: as §3

persian speedwell = assay: Test Example 5: herbicidal effect by foliage application, plastic box (Table 20, symbol R); assay type: in vivo, Persian speedwell (Veronica persica); settings: foliage application; for herbicidal effect on R: persian speedwell: 320 g/ha, evaluated three weeks after application
Procedure, shortened: as §3

[3] = AAH 320 g/ha, three weeks after application
[4] = amount of applied herbicide 320 g/ha

| SMILES | Herbicidal effect on A: late watergrass (grade 0-5) (late watergrass) | Herbicidal effect on B: Japanese bulrush (grade 0-5) (Japanese bulrush) | Herbicidal effect on C: oval-leafed pondweed (grade 0-5) (oval-leafed pondweed) | herbicidal effect on H (barnyard grass), rating 0-5 (barnyard grass [1]) | herbicidal effect on D (Chinese sprangletop), rating 0-5 (Chinese sprangletop) | herbicidal effect on E (rice flat sedge), rating 0-5 (rice flat sedge) | herbicidal effect on F: southern crabgrass (southern crabgrass) | herbicidal effect on G: green foxtail (green foxtail) | herbicidal effect on H: barnyard grass (barnyard grass [2]) | herbicidal effect on I: wild oat (wild oat) | herbicidal effect on J: blackgrass (blackgrass) | herbicidal effect on K: Italian ryegrass (Italian ryegrass) | herbicidal effect on L: windgrass (windgrass) | herbicidal effect on M: velvetleaf (velvetleaf) | herbicidal effect on N: redroot pigweed (redroot pigweed) | herbicidal effect on O: lambsquarters (lambsquarters) | herbicidal effect on P: chickweed (chickweed) | herbicidal effect on R: persian speedwell (persian speedwell) | other results |
| --- | --- | --- | --- | --- | --- | --- | --- | --- | --- | --- | --- | --- | --- | --- | --- | --- | --- | --- | --- |
| COc1cccc(Cl)c1-c1sc2ccccc2c1-c1c(O)c(C)nn(C)c1=O [1-159] | 2 (Herbicidal rate of 20% or more and less than 40%) | 0 (Herbicidal rate of 5% or less (almost no effect)) | 0 (Herbicidal rate of 5% or less (almost no effect)) | 2 (Herbicidal rate of 20% or more and less than 40%) | 0 (Herbicidal rate of 5% or less (almost no effect)) | 0 (Herbicidal rate of 5% or less (almost no effect)) |  |  |  |  |  |  |  |  |  |  |  |  | F: southern crabgrass, herbicidal effect (southern crabgrass; [3]): 0 (Herbicidal rate of 5% or less (almost no effect)); G: green foxtail, herbicidal effect (green foxtail; [3]): 0 (Herbicidal rate of 5% or less (almost no effect)); H: barnyard grass, herbicidal effect (barnyard grass [2]; [3]): 0 (Herbicidal rate of 5% or less (almost no effect)); I: wild oat, herbicidal effect (wild oat; [3]): 0 (Herbicidal rate of 5% or less (almost no effect)); J: blackgrass, herbicidal effect (blackgrass; [3]): 0 (Herbicidal rate of 5% or less (almost no effect)); K: Italian ryegrass, herbicidal effect (Italian ryegrass; [3]): 0 (Herbicidal rate of 5% or less (almost no effect)); L: windgrass, herbicidal effect (windgrass; [3]): 0 (Herbicidal rate of 5% or less (almost no effect)); M: velvetleaf, herbicidal effect (velvetleaf; [3]): 0 (Herbicidal rate of 5% or less (almost no effect)); N: redroot pigweed, herbicidal effect (redroot pigweed; [3]): 0 (Herbicidal rate of 5% or less (almost no effect)); O: lambsquarters, herbicidal effect (lambsquarters; [3]): 0 (Herbicidal rate of 5% or less (almost no effect)); P: chickweed, herbicidal effect (chickweed; [3]): 5 (Herbicidal rate of 90% or more (almost completely withered)); R: persian speedwell, herbicidal effect (persian speedwell; [3]): 5 (Herbicidal rate of 90% or more (almost completely withered)) |
| COCCOCOc1c(C)nn(C)c(=O)c1-c1c(-c2ccc(OCC(=O)OC)cc2)sc2ccc(F)cc12 [2-071] | 3 (Herbicidal rate of 40% or more and less than 70%) | 0 (Herbicidal rate of 5% or less (almost no effect)) | 0 (Herbicidal rate of 5% or less (almost no effect)) | 2 (Herbicidal rate of 20% or more and less than 40%) | 3 (Herbicidal rate of 40% or more and less than 70%) | 2 (Herbicidal rate of 20% or more and less than 40%) | 0 (Herbicidal rate of 5% or less (almost no effect)) | 0 (Herbicidal rate of 5% or less (almost no effect)) | 0 (Herbicidal rate of 5% or less (almost no effect)) | 0 (Herbicidal rate of 5% or less (almost no effect)) | 0 (Herbicidal rate of 5% or less (almost no effect)) | 0 (Herbicidal rate of 5% or less (almost no effect)) | 0 (Herbicidal rate of 5% or less (almost no effect)) | 0 (Herbicidal rate of 5% or less (almost no effect)) | 4 (Herbicidal rate of 70% or more and less than 90%) | 3 (Herbicidal rate of 40% or more and less than 70%) | 3 (Herbicidal rate of 40% or more and less than 70%) | 0 (Herbicidal rate of 5% or less (almost no effect)) |  |
| CCCC(=O)Oc1c(C)nn(C)c(=O)c1-c1c(-c2ccc(Oc3ccccc3)cc2)sc2ccc(F)cc12 [2-073] | 3 (Herbicidal rate of 40% or more and less than 70%) | 0 (Herbicidal rate of 5% or less (almost no effect)) | 0 (Herbicidal rate of 5% or less (almost no effect)) | 4 (Herbicidal rate of 70% or more and less than 90%) | 3 (Herbicidal rate of 40% or more and less than 70%) | 3 (Herbicidal rate of 40% or more and less than 70%) | 0 (Herbicidal rate of 5% or less (almost no effect)) | 2 (Herbicidal rate of 20% or more and less than 40%) | 1 (Herbicidal rate of 5% or more and less than 20%) | 0 (Herbicidal rate of 5% or less (almost no effect)) | 0 (Herbicidal rate of 5% or less (almost no effect)) | 0 (Herbicidal rate of 5% or less (almost no effect)) | 0 (Herbicidal rate of 5% or less (almost no effect)) | 3 (Herbicidal rate of 40% or more and less than 70%) | 3 (Herbicidal rate of 40% or more and less than 70%) | 3 (Herbicidal rate of 40% or more and less than 70%) | 5 (Herbicidal rate of 90% or more (almost completely withered)) | 4 (Herbicidal rate of 70% or more and less than 90%) |  |
| COc1ccc(Br)cc1-c1sc2ccc(Br)cc2c1-c1c(O)c(C)nn(C)c1=O [2-129] | 5 (Herbicidal rate of 90% or more (almost completely withered)) | 0 (Herbicidal rate of 5% or less (almost no effect)) | 0 (Herbicidal rate of 5% or less (almost no effect)) |  |  |  | 0 (Herbicidal rate of 5% or less (almost no effect)) | 0 (Herbicidal rate of 5% or less (almost no effect)) | 0 (Herbicidal rate of 5% or less (almost no effect)) | 0 (Herbicidal rate of 5% or less (almost no effect)) | 0 (Herbicidal rate of 5% or less (almost no effect)) | 0 (Herbicidal rate of 5% or less (almost no effect)) | 0 (Herbicidal rate of 5% or less (almost no effect)) | 0 (Herbicidal rate of 5% or less (almost no effect)) | 0 (Herbicidal rate of 5% or less (almost no effect)) | 2 (Herbicidal rate of 20% or more and less than 40%) | 0 (Herbicidal rate of 5% or less (almost no effect)) | 0 (Herbicidal rate of 5% or less (almost no effect)) | herbicidal effect on H: barnyard grass (barnyard grass [1]; [4]): 3 (Herbicidal rate of 40% or more and less than 70%); herbicidal effect on D: Chinese sprangletop (Chinese sprangletop; [4]): 0 (Herbicidal rate of 5% or less (almost no effect)); herbicidal effect on E: rice flat sedge (rice flat sedge; [4]): 0 (Herbicidal rate of 5% or less (almost no effect)) |

From patent US20230085307A1, “PYRIDAZINONE COMPOUND AND HERBICIDE” (NISSAN CHEMICAL CORPORATION, priority 2019, published 2023)
